From PubChem BioAssay (NCI)
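Compound exposure: 48 hours, 5 concentrations, 96-well plates. GI50 = concentration required for 50% inhibition of growth. Definition used: TGI = concentration required for complete inhibition of growth.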

Key:
Assay in all cases: growth of human tumour cells (NCI), 48 h
A498 renal = tested on: A498 renal
HT29 colon = tested on: HT29 colon
IGROV1 ovarian = tested on: IGROV1 ovarian
LOX IMVI melanoma = tested on: LOX IMVI melanoma
MALME-3M melanoma = tested on: MALME-3M melanoma
NCI-H23 lung = tested on: NCI-H23 lung
SF-268 CNS = tested on: SF-268 CNS
SK-MEL-5 melanoma = tested on: SK-MEL-5 melanoma
SNB-19 CNS = tested on: SNB-19 CNS

Row | Structure (SMILES) | GI50 (A498 renal) | TGI (A498 renal) | GI50 (HT29 colon) | TGI (HT29 colon) | GI50 (IGROV1 ovarian) | TGI (IGROV1 ovarian) | GI50 (LOX IMVI melanoma) | TGI (LOX IMVI melanoma) | GI50 (MALME-3M melanoma) | TGI (MALME-3M melanoma) | GI50 (NCI-H23 lung) | TGI (NCI-H23 lung) | GI50 (SF-268 CNS) | TGI (SF-268 CNS) | GI50 (SK-MEL-5 melanoma) | TGI (SK-MEL-5 melanoma) | GI50 (SNB-19 CNS) | TGI (SNB-19 CNS)
1 | NS(=O)(=O)c1ccc(C2C3=C(CCCC3=O)OC3=C2C(=O)c2ccccc2C3=O)cc1 (centres undefined) | 1.28 µM | 2.57 µM | 1.07 µM | 5.17 µM | 0.347 µM | 1.2 µM | 0.136 µM | 1.04 µM | 0.319 µM | 1.09 µM | 0.198 µM | 1.15 µM | 0.386 µM | 1.66 µM | 1.18 µM | 2.43 µM | 1.24 µM | 2.52 µM
2 | CC1CCC2(NC1)OC1CC3[C@@H]4CC=C5C=CCC[C@]5(C)C4CC[C@]3(C)C1C2C (some centres undefined) |  | > 100 µM |  | 32.1 µM |  | > 100 µM |  | 33.6 µM |  | 35.3 µM |  | > 100 µM |  | > 100 µM |  | 30.8 µM |  | > 100 µM
3 | CC(=O)O[C@H]1CC[C@@]2(C)C(CC[C@]3(C)C2CC[C@]2(C)Oc4c(C)cc(O)cc4C[C@@H]23)C1(C)C (some centres undefined) |  | 26 µM |  | 23.9 µM |  | 30 µM |  | 23.8 µM |  | 22.8 µM |  | 21.6 µM |  | 21.4 µM |  | 18.4 µM |  | 14.4 µM
4 | OCCN(CCO)c1cccc(N(CCO)CCO)c1 |  | > 100 µM |  |  |  |  |  | > 100 µM |  |  |  | > 100 µM |  | > 100 µM |  | > 100 µM |  | > 100 µM
5 | Cc1cc2c(cc1C)[n+](=O)c(C(=O)/C=C/c1ccc(Cl)cc1)c(C)n2[O-] |  | 75.9 µM |  | 95.5 µM |  | 63.7 µM |  | 50.4 µM |  | > 100 µM |  | 65.6 µM |  |  |  | 58.7 µM |  | > 100 µM
6 | O=c1[nH]c(-c2ccccc2)nc2ccc(Cl)cc12 |  |  |  | > 100 µM |  |  |  |  |  | > 100 µM |  | > 100 µM |  | > 100 µM |  |  |  | > 100 µM
7 | NC1CCCCC1N.O=C([O-])P(=O)([O-])[O-].[Na+].[Pt+4] (centres undefined) | > 100 µM | > 100 µM | > 100 µM | > 100 µM | > 100 µM | > 100 µM | > 100 µM | > 100 µM | 84.3 µM | > 100 µM | > 100 µM | > 100 µM | > 100 µM | > 100 µM |  |  | > 100 µM | > 100 µM
8 | O=S(=O)([O-])[O-].[Cl-].[NH2-].[NH2-].[NH2-].[NH2-].[Ru+3].c1ccc(-c2cccnc2)cc1 | > 100 µM | > 100 µM | > 100 µM | > 100 µM | > 100 µM | > 100 µM | > 100 µM | > 100 µM | > 100 µM | > 100 µM | > 100 µM | > 100 µM | > 100 µM | > 100 µM | > 100 µM | > 100 µM |  | 
9 | CCN(CC)c1ccc(N=C2C=CC(=O)c3ncccc32)c(C)c1 |  |  |  | 29.2 µM |  | 21 µM |  | 4.39 µM |  | 12.5 µM |  | 18.6 µM |  | 21.3 µM |  | 18.4 µM |  | 29.8 µM
10 | Cn1ccnc1C(c1nccn1C)C(C)(C)[N+](=O)[O-] |  | > 100 µM |  |  |  |  |  | > 100 µM |  |  |  |  |  | > 100 µM |  | > 100 µM |  | 
11 | CN(C)c1ccc(/C=C/C(=O)C(C)(C)C)cc1Br |  | > 100 µM |  | > 100 µM |  | > 100 µM |  |  |  | > 100 µM |  | 75.9 µM |  | 70 µM |  | 35.5 µM |  | > 100 µM
12 | O=C1CCC2CCc3cccc4oc1c2c34 (centres undefined) |  | > 100 µM |  | > 100 µM |  | > 100 µM |  | > 100 µM |  |  |  | > 100 µM |  |  |  | > 100 µM |  | > 100 µM
13 | Nc1ccc(-c2nc3ccccc3[nH]2)c(O)c1 | 31.9 µM | 68.5 µM | 41 µM | > 100 µM | > 100 µM | > 100 µM | 40.8 µM | > 100 µM |  |  | 20 µM | 66.3 µM | 27.6 µM | > 100 µM | 21.3 µM | 72.3 µM | 66.8 µM | > 100 µM
14 | CCOC(=O)c1cc2c(n1Cc1cc(OC)cc(OC)c1)-c1oncc1CCC2 | 0.0469 µM | 0.295 µM | 0.0499 µM | 20.1 µM | 0.0732 µM | > 100 µM | 0.119 µM | > 100 µM |  |  | 0.544 µM | > 100 µM | 0.243 µM | > 100 µM | 0.0528 µM | 6.22 µM | 0.844 µM | > 100 µM
15 | CC1=C(C)CC2(SC1)C(=O)c1ccccc1C2=O |  | > 100 µM |  | > 100 µM |  | > 100 µM |  | > 100 µM |  | > 100 µM |  |  |  | > 100 µM |  | > 100 µM |  | > 100 µM
16 | Oc1ccc2occ3c2c1CCC3 |  | > 100 µM |  | > 100 µM |  | > 100 µM |  | > 100 µM |  |  |  | > 100 µM |  |  |  | > 100 µM |  | > 100 µM
17 | C=CCC12CCC(=O)C=C1CCC1(C2)OCCO1 (centres undefined) |  | > 100 µM |  |  |  | > 100 µM |  |  |  | > 100 µM |  |  |  | > 100 µM |  | > 100 µM |  | > 100 µM
18 | Cc1ccc(C(=O)O/N=C2/CCCCC2CN(C)C)cc1 (centres undefined) |  | > 100 µM |  | > 100 µM |  | > 100 µM |  | > 100 µM |  | > 100 µM |  | > 100 µM |  |  |  | > 100 µM |  | 
